The values that follow come from US10722514B2 (FLX Bio, Inc., priority 2017, dated 2020).

For this assay, the target named is T1, recombinant full-length USP7 (Homo sapiens, UniProt Q93009).
T1 construct: A 25 μl reaction volume containing recombinant full-length USP7 (62 pM)
Nature of the assay: USP7-mediated ubiquitin-rhodamine cleavage assay. In kind it is biochemical. As to conditions: recombinant full-length USP7 62 pM; ubiquitin-rhodamine 100 nM; 30-minute incubation with compound, 1 hour reaction at room temperature; read-out: Potency: USP7 IC50. Summed up: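 USP7 (62 pM) in 20 mM HEPES pH 7.3, 150 mM NaCl, 1 mM TCEP, 125 μg/ml BSA was preincubated with compound (1% DMSO) for 30 min at room temperature. Ubiquitin-rhodamine (100 nM final) was then added for 1 hour, the reaction stopped with acetic acid, and fluorescence read; IC50 from 4-parameter fit.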

The IC50 is the point on the concentration scale where inhibition reaches its midpoint.

T1 sequence (Q93009 whole entry): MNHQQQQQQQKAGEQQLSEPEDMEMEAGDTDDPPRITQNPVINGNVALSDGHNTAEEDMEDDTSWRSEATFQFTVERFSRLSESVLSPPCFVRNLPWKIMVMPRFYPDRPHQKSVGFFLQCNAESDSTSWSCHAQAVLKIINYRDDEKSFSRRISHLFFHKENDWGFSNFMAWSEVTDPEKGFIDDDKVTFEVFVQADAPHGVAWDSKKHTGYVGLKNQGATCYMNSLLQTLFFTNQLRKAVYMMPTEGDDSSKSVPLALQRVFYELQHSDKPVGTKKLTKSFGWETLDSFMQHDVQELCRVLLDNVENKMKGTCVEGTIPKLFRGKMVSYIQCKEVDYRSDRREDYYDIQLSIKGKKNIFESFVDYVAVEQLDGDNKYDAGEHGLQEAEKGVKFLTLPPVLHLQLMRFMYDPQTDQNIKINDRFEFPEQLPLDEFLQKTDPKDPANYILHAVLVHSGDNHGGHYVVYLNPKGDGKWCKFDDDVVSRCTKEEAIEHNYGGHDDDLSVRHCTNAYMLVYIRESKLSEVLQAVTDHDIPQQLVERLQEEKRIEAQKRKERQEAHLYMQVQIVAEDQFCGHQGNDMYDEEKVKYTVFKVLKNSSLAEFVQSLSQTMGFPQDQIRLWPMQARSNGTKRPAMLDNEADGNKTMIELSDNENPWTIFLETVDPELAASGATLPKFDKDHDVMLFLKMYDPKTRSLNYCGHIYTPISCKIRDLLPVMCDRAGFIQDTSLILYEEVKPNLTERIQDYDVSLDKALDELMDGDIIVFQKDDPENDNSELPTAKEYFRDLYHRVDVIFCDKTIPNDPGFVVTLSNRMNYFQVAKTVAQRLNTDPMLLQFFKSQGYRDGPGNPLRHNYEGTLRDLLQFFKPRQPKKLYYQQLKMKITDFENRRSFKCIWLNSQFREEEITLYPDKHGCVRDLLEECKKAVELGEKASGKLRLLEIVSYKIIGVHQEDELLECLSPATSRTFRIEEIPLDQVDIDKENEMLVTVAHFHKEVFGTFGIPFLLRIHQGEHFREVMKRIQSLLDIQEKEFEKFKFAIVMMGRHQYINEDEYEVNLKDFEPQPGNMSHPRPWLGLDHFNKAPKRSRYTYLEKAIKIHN

As to `Cc1cc(Cl)cc(-c2ccnc3cc(CN4C(=O)CCCC4=O)sc23)c1O[C@H]1CCCNC1` [Example 237, (S)-1-((7-(5-Chloro-3-methyl-2-(piperidin-3-yloxy)phenyl)thieno[3,2-b]pyridin-2-yl)methyl)piperidine-2,6-dione], the IC50 is less than 1000 nM.

For `Cc1cc(F)cc(-c2ccnc3cc(CO)sc23)c1O[C@H]1CCCNC1` [Example 238, (S)-(7-(5-Fluoro-3-methyl-2-(piperidin-3-yloxy)phenyl)thieno[3,2-b]pyridin-2-yl)methanol], the half-maximal inhibitory concentration (IC50) was 10000 to 30000 nM.

As to `N#Cc1cc(Cl)cc(-c2ccnc3cc(CO)sc23)c1O[C@H]1CCCNC1` [Example 239, (S)-5-Chloro-3-(2-(hydroxymethyl)thieno[3,2-b]pyridin-7-yl)-2-(piperidin-3-yloxy)benzonitrile], the IC50 is greater than 30000 nM.

With `Cc1cc(Cl)cc(-c2ccnc3ccsc23)c1O[C@H]1CCCN(C)C1` [Example 240, (S)-7-(5-Chloro-3-methyl-2-((1-methylpiperidin-3-yl)oxy)phenyl)thieno[3,2-b]pyridine], the IC50 is greater than 30000 nM.

`Cc1cc(Cl)cc(-c2ccnc3cc([C@H](C)N4C(=O)CCC4=O)sc23)c1O[C@H]1CCCNC1` [Example 241, 1-((S)-1-(7-(5-Chloro-3-methyl-2-(((S)-piperidin-3-yl)oxy)phenyl)thieno[3,2-b]pyridin-2-yl)ethyl)pyrrolidine-2,5-dione]: the IC50 is less than 1000 nM.

For `Cc1cc(Cl)cc(-c2ccnc3c(F)c(CN4C(=O)CCC4=O)sc23)c1OC1CCNCC1` [Example 242, 1-((7-(5-Chloro-3-methyl-2-(piperidin-4-yloxy)phenyl)-3-fluorothieno[3,2-b]pyridin-2-yl)methyl)pyrrolidine-2,5-dione], the IC50 is less than 1000 nM.

For `Cc1cc(Cl)cc(-c2ccnc3cc(CN4C(=O)CCC4=O)sc23)c1O[C@@H]1CNCC[C@@H]1C` [Example 243, 1-((7-(5-Chloro-3-methyl-2-(((3S,4S)-4-methylpiperidin-3-yl)oxy)phenyl)thieno[3,2-b]pyridin-2-yl)methyl)pyrrolidine-2,5-dione], the IC50 was less than 1000 nM.

For the compound `Cc1cc(Cl)cc(-c2ccnc3cc(CN4C(=O)C5CC5C4=O)sc23)c1O[C@H]1CCCNC1` (stereo partly drawn) [Example 244, 3-((7-(5-Chloro-3-methyl-2-(((S)-piperidin-3-yl)oxy)phenyl)thieno[3,2-b]pyridin-2-yl)methyl)-3-azabicyclo[3.1.0]hexane-2,4-dione], the half-inhibitory concentration (IC50) is less than 1000 nM.

Regarding `Cc1cc(Cl)cc(-c2ncnc3cc(CN4C(=O)C5CC5C4=O)sc23)c1O[C@H]1CCCNC1` (stereo partly drawn) [Example 245, 3-((4-(5-Chloro-3-methyl-2-(((S)-piperidin-3-yl)oxy)phenyl)thieno[3,2-d]pyrimidin-6-yl)methyl)-3-azabicyclo[3.1.0]hexane-2,4-dione], the half-inhibitory concentration (IC50) is less than 1000 nM.

With `CN[C@H]1CC[C@@H](Oc2c(C)cc(Cl)cc2-c2ccnc3cc(CO)sc23)CC1` [Example 247, (7-(5-Chloro-3-methyl-2-(((l s,4s)-4-(methylamino)cyclohexyl)oxy)phenyl)thieno[3,2-b]pyridin-2-yl)methanol], the IC50 is 10000 to 30000 nM.

As to `Cc1cc(C)c(O[C@H]2CCCNC2)c(-c2ccnc3cc(CO)sc23)c1` [Example 248, (S)-(7-(3,5-Dimethyl-2-(piperidin-3-yloxy)phenyl)thieno[3,2-b]pyridin-2-yl)methanol], the half-inhibitory concentration (IC50) was in the range of 10000 to 30000 nM.

Consider `Cc1cc(Cl)cc(-c2ccnc3cc(CN4C(=O)CSC4=O)sc23)c1O[C@H]1CCCNC1` [Example 249, (S)-3-((7-(5-Chloro-3-methyl-2-(piperidin-3-yloxy)phenyl)thieno[3,2-b]pyridin-2-yl)methyl)thiazolidine-2,4-dione], for which the IC50 was less than 1000 nM.

As to `Cc1cc(Cl)cc(-c2ncnc3cc(CN4C(=O)CSC4=O)sc23)c1O[C@H]1CCCNC1` [Example 250, (S)-3-((4-(5-Chloro-3-methyl-2-(piperidin-3-yloxy)phenyl)thieno[3,2-d]pyrimidin-6-yl)methyl)thiazolidine-2,4-dione], the IC50 was less than 1000 nM.

Take `Cc1cc(Cl)cc(-c2ncnc3cc(Cn4c(=O)ccn(C)c4=O)sc23)c1O[C@H]1CCCNC1` [Example 251, (S)-3-((4-(5-Chloro-3-methyl-2-(piperidin-3-yloxy)phenyl)thieno[3,2-d]pyrimidin-6-yl)methyl)-1-methylpyrimidine-2,4(1H,3H)-dione]: the half-maximal inhibitory concentration (IC50) was less than 1000 nM.

With `Cc1cc(Cl)cc(-c2ncnc3cc(CN4C(=O)CCN(C)C4=O)sc23)c1O[C@H]1CCCNC1` [Example 252, (S)-3-((4-(5-Chloro-3-methyl-2-(piperidin-3-yloxy)phenyl)thieno[3,2-d]pyrimidin-6-yl)methyl)-1-methyldihydropyrimidine-2,4(1H,3H)-dione], the IC50 was less than 1000 nM.

As to `Cc1cc(C(F)(F)F)cc(-c2ccnc3cc(CN4C(=O)CCC4=O)sc23)c1OC1CCNCC1` [Example 253, 1-((7-(3-Methyl-2-(piperidin-4-yloxy)-5-(trifluoromethyl)phenyl)thieno[3,2-b]pyridin-2-yl)methyl)pyrrolidine-2,5-dione], the 50% inhibitory concentration (IC50) is less than 1000 nM.

As to `Cc1cc(C(F)(F)F)cc(-c2ccnc3cc(CN4C(=O)CCC4=O)sc23)c1O[C@H]1CCCNC1` [Example 254, (S)-1-((7-(3-Methyl-2-(piperidin-3-yloxy)-5-(trifluoromethyl)phenyl)thieno[3,2-b]pyridin-2-yl)methyl)pyrrolidine-2,5-dione], the 50% inhibitory concentration (IC50) was less than 1000 nM.

For the compound `Cc1cc(Cl)cc(-c2ccnc3cc(Cn4c(=O)ccn(C)c4=O)sc23)c1OC1CCN(C2COC2)CC1` [Example 255, 3-((7-(5-Chloro-3-methyl-2-((1-(oxetan-3-yl)piperidin-4-yl)oxy)phenyl)thieno[3,2-b]pyridin-2-yl)methyl)-1-methylpyrimidine-2,4(1H,3H)-dione], the IC50 is less than 1000 nM.

With `CC[C@@H](c1cc2nccc(-c3cc(Cl)cc(C)c3OC3CCNCC3)c2s1)N1C(=O)CCC1=O` [Example 256, (S)-1-(1-(7-(5-Chloro-3-methyl-2-(piperidin-4-yloxy)phenyl)thieno[3,2-b]pyridin-2-yl)propyl)pyrrolidine-2,5-dione], the IC50 is 1000 to 10000 nM.

Take `CC[C@@H](c1cc2nccc(-c3cc(Cl)cc(C)c3O[C@H]3CCCNC3)c2s1)N1C(=O)CCC1=O` [Example 257, 1-((S)-1-(7-(5-Chloro-3-methyl-2-(((S)-piperidin-3-yl)oxy)phenyl)thieno[3,2-b]pyridin-2-yl)propyl)pyrrolidine-2,5-dione]: the 50% inhibitory concentration (IC50) was less than 1000 nM.

In the case of `Cc1cc(Cl)cc(-c2ccnc3cc(CN4C(=O)CC(C)(C)CC4=O)sc23)c1OC1CCNCC1` [Example 258, 1-((7-(5-Chloro-3-methyl-2-(piperidin-4-yloxy)phenyl)thieno[3,2-b]pyridin-2-yl)methyl)-4,4-dimethylpiperidine-2,6-dione], the IC50 was less than 1000 nM.

On to `Cc1cc(Cl)cc(-c2ncnc3cc(CN4C(=O)CCCC4=O)sc23)c1OC1CCNCC1` [Example 259, 1-((4-(5-Chloro-3-methyl-2-(piperidin-4-yloxy)phenyl)thieno[3,2-d]pyrimidin-6-yl)methyl)piperidine-2,6-dione], for which the IC50 was in the range of 1000 to 10000 nM.

Regarding `Cc1cc(Cl)cc(-c2ncnc3cc(CN4C(=O)CCCC4=O)sc23)c1O[C@H]1CCCNC1` [Example 260, (S)-1-((4-(5-Chloro-3-methyl-2-(piperidin-3-yloxy)phenyl)thieno[3,2-d]pyrimidin-6-yl)methyl)piperidine-2,6-dione], the IC50 is less than 1000 nM.
